Assays:
bedstraw = test: Test B pre/postemergence bedstraw; type: in vivo, Galium aparine
Summary of the method: (§1)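 Herbicidal effect was estimated by eye on a ten-point control scale after plants spent twelve to sixteen days in a greenhouse following soil or foliar treatment. Foliar sprays targeted plants at one to four leaves; all doses were formulated in a non-phytotoxic solvent with surfactant.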

soybean = test: Test B pre/postemergence soybean; type: in vivo, Glycine max
Summary of the method: as §1

wild oat [1] = test: Test B pre/postemergence wild oat; type: in vivo, Avena fatua
Summary of the method: as §1

bamyardgrass = test: Test B flood test barnyardgrass; type: in vivo, Echinochloa crus-galli
Summary of the method: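 Plants were grown to the 2-leaf stage before treatment with test chemical, then held in a greenhouse for twelve to sixteen days. Injury was visually rated against untreated controls on a 0–10 scale, where 0 is no effect and 10 is complete control.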

winter wheat [2] = test: Test E winter wheat; type: in vivo, Triticum aestivum; conditions: Postemergence; for Wheat (winter) plant response rating: Rate 250 g/ha
Summary of the method: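 Plants were grown under normal greenhouse practice; for postemergence, in sandy loam soil mixed 60:40 with potting mix, treated at the 1- to 4-leaf stage. The compound was in a non-phytotoxic solvent carrying a surfactant. After roughly 21 to 28 days plants were scored visually against untreated plants.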

blackgrass = test: Test E blackgrass; type: in vivo, Alopecurus myosuroides; conditions: Preemergence; for Blackgrass plant response rating (0 to 100 scale): Rate 250 g/ha
green foxtail = test: Test E green foxtail; type: in vivo, Setaria viridis; conditions: Preemergence; for Green foxtail plant response rating (0 to 100 scale): Rate 250 g/ha
Italian ryegrass = test: Test E Italian ryegrass; type: in vivo, Lolium multiflorum; conditions: Preemergence; for I. Ryegrass plant response rating (0 to 100 scale): Rate 250 g/ha
winter wheat [3] = test: Test E winter wheat; type: in vivo, Triticum aestivum; conditions: Preemergence; for Wheat (winter) plant response rating (0 to 100 scale): Rate 250 g/ha
wild oat [4] = test: Test E wild oat; type: in vivo, Avena fatua; conditions: Preemergence; for Wild oat plant response rating (0 to 100 scale): Rate 250 g/ha
winter barley = test: Test E winter barley; type: in vivo, Hordeum vulgare; conditions: Preemergence; for Barley (winter) plant response rating (0 to 100 scale): Rate 250 g/ha
[5] = Preemergence, Rate 62 g/ha, scale of 0 to 10 where 0 is no effect and 10 is complete control
[6] = Preemergence, Rate 250 g/ha, scale of 0 to 10 where 0 is no effect and 10 is complete control
[7] = Preemergence, Rate 500 g/ha, scale of 0 to 10 where 0 is no effect and 10 is complete control
[8] = Rate 125 g/ha, Postemergence, scale of 0 to 10 where 0 is no effect and 10 is complete control
[9] = Rate 125 g/ha, Preemergence, scale of 0 to 10 where 0 is no effect and 10 is complete control
[10] = Rate 250 g/ha, Postemergence, scale of 0 to 10 where 0 is no effect and 10 is complete control
[11] = Rate 500 g/ha, Postemergence, scale 0 to 10, 0 no effect, 10 complete control
[12] = Rate 62 g/ha, headed Pre-emergence (flood test species), scale 0 to 10 (0 no effect, 10 complete control)
[13] = Rate 125 g/ha, Pre-emergence, flood test species, scale 0 to 10 where 0 is no effect and 10 is complete control
[14] = Rate 250 g/ha, Pre-emergence, flood-test species, scale 0 to 10, 0 is no effect, 10 is complete control
[15] = Rate 500 g/ha, Pre-emergence, flood test species, scale 0 to 10 (0 no effect, 10 complete control)
[16] = Rate 1000 g/ha, 0 to 100 scale where 0 is no effect and 100 is complete control
[17] = 0 to 100 scale where 0 is no effect and 100 is complete control
[18] = Rate 500 g/ha, 0 to 100 scale, 0 is no effect, 100 is complete control
[19] = Rate 125 g/ha, 0 to 100 scale (0 no effect, 100 complete control)
[20] = Rate 500 g/ha, 0 to 100 scale where 0 is no effect and 100 is complete control
[21] = Rate 1000 g/ha, 0 to 100 scale, 0 no effect, 100 complete control
[22] = Rate 62 g/ha, Postemergence, scale 0 to 10 (0 no effect, 10 complete control)
[23] = Rate 500 g/ha, 0 to 100 scale (0 no effect, 100 complete control)
[24] = Postemergence, Rate 31 g/ha, visual rating, scale 0 to 10 (0 no effect, 10 complete control)
[25] = Preemergence, Rate 31 g/ha, visual rating, scale 0 to 10 (0 no effect, 10 complete control)
[26] = Rate 16 g/ha, Postemergence, scale 0 to 10, 0 no effect, 10 complete control
[27] = Rate 16 g/ha, Preemergence, scale 0 to 10, 0 no effect, 10 complete control

CC(C)N(C(=O)n1oc(=O)n(C2CCCC2)c1=O)c1ccc(F)cc1 [Compound 271]
Bedstraw plant response rating (bedstraw; [5]): 3 | Bedstraw plant response rating (bedstraw; [6]): 10 | Plant response rating, Bedstraw (bedstraw; [7]): 10 | Bedstraw plant response rating (bedstraw; Rate 62 g/ha, Postemergence, scale of 0 to 10 where 0 is no effect and 10 is complete control): 4 | Bedstraw plant response rating (bedstraw; [8]): 6 | Bedstraw plant response rating (bedstraw; [9]): 10 | Plant response rating, Bedstraw (bedstraw; [10]): 8 | Bedstraw plant response rating (bedstraw; [11]): 8 | Soybean plant response rating (soybean; [5]): 0 | Soybean plant response rating (soybean; [6]): 0 | Plant response rating, Soybean (soybean; [7]): 1 | Soybean plant response rating (soybean; [8]): 5 | Soybean plant response rating (soybean; [9]): 0 | Plant response rating, Soybean (soybean; [10]): 5 | Soybean plant response rating (soybean; [11]): 6 | Wild oats plant response rating (wild oat [1]; [5]): 2 | Wild oats plant response rating (wild oat [1]; [6]): 6 | Plant response rating, Wild oats (wild oat [1]; [7]): 8 | Wild oats plant response rating (wild oat [1]; [8]): 0 | Plant response rating, Wild oats (wild oat [1]; [10]): 0 | Wild oats plant response rating (wild oat [1]; [11]): 3 | Barnyardgrass plant response rating (bamyardgrass; [12]): 4 | Barnyardgrass plant response rating (bamyardgrass; [13]): 3 | Barnyardgrass plant response rating (bamyardgrass; [14]): 9 | Barnyardgrass plant response rating (bamyardgrass; [15]): 9 | Plant response rating, Wheat (winter) (winter wheat [2]; Rate 125 g/ha, 0 to 100 scale, 0 is no effect, 100 is complete control): 10 | Plant response rating, Wheat (winter) (winter wheat [2]; [16]): 0 | Wheat (winter) plant response rating (winter wheat [2]; [17]): 10 | Plant response rating, Wheat (winter) (winter wheat [2]; [18]): 0 | Plant response rating, Blackgrass (blackgrass; [19]): 30 | Blackgrass plant response rating (0 to 100 scale) (blackgrass): 100 | Plant response rating, Blackgrass (blackgrass; [20]): 80 | Plant response rating, Blackgrass (blackgrass; [21]): 100 | Plant response rating, Green foxtail (green foxtail; [19]): 70 | Green foxtail plant response rating (0 to 100 scale) (green foxtail): 100 | Plant response rating, Green foxtail (green foxtail; [20]): 100 | Plant response rating, Green foxtail (green foxtail; [21]): 100 | Plant response rating, I. Ryegrass (Italian ryegrass; [19]): 60 | I. Ryegrass plant response rating (0 to 100 scale) (Italian ryegrass): 100 | Plant response rating, I. Ryegrass (Italian ryegrass; [20]): 85 | Plant response rating, I. Ryegrass (Italian ryegrass; [21]): 100 | Plant response rating, Wheat (winter) (winter wheat [3]; [19]): 30 | Wheat (winter) plant response rating (0 to 100 scale) (winter wheat [3]): 60 | Plant response rating, Wheat (winter) (winter wheat [3]; [20]): 50 | Plant response rating, Wheat (winter) (winter wheat [3]; [21]): 75 | Plant response rating, Wild oat (wild oat [4]; [19]): 50 | Wild oat plant response rating (0 to 100 scale) (wild oat [4]): 60 | Plant response rating, Wild oat (wild oat [4]; [20]): 65 | Plant response rating, Wild oat (wild oat [4]; [21]): 60 | Plant response rating, Barley (winter) (winter barley; [19]): 35 | Barley (winter) plant response rating (0 to 100 scale) (winter barley): 45 | Plant response rating, Barley (winter) (winter barley; [20]): 50 | Plant response rating, Barley (winter) (winter barley; [21]): 60

CC1Cc2cccc(-n3c(=O)on(C(=O)N(c4ccc(F)cc4)C(C)C)c3=O)c2O1 (stereo not shown) [Compound 281]
Bedstraw plant response rating (bedstraw; [5]): 0 | Bedstraw plant response rating (bedstraw; [6]): 6 | Plant response rating, Bedstraw (bedstraw; [7]): 10 | Bedstraw plant response rating (bedstraw; [9]): 3 | Soybean plant response rating (soybean; [5]): 0 | Soybean plant response rating (soybean; [6]): 0 | Plant response rating, Soybean (soybean; [7]): 0 | Soybean plant response rating (soybean; [22]): 2 | Soybean plant response rating (soybean; [9]): 0 | Plant response rating, Soybean (soybean; [10]): 3 | Soybean plant response rating (soybean; [11]): 3 | Wild oats plant response rating (wild oat [1]; [5]): 0 | Wild oats plant response rating (wild oat [1]; [6]): 2 | Plant response rating, Wild oats (wild oat [1]; [7]): 3 | Wild oats plant response rating (wild oat [1]; [22]): 0 | Wild oats plant response rating (wild oat [1]; [8]): 0 | Plant response rating, Wild oats (wild oat [1]; [10]): 0 | Wild oats plant response rating (wild oat [1]; [11]): 0 | Barnyardgrass plant response rating (bamyardgrass; [12]): 0 | Barnyardgrass plant response rating (bamyardgrass; [13]): 0 | Barnyardgrass plant response rating (bamyardgrass; [14]): 4 | Barnyardgrass plant response rating (bamyardgrass; [15]): 2 | Plant response rating, Wheat (winter) (winter wheat [2]; [16]): 80 | Wheat (winter) plant response rating (winter wheat [2]; [17]): 55 | Plant response rating, Wheat (winter) (winter wheat [2]; [18]): 70 | Blackgrass plant response rating (0 to 100 scale) (blackgrass): 50 | Plant response rating, Blackgrass (blackgrass; [21]): 50 | Green foxtail plant response rating (0 to 100 scale) (green foxtail): 100 | Plant response rating, Green foxtail (green foxtail; [23]): 100 | Plant response rating, Green foxtail (green foxtail; [21]): 100 | I. Ryegrass plant response rating (0 to 100 scale) (Italian ryegrass): 60 | Plant response rating, I. Ryegrass (Italian ryegrass; [23]): 60 | Plant response rating, I. Ryegrass (Italian ryegrass; [21]): 60 | Wheat (winter) plant response rating (0 to 100 scale) (winter wheat [3]): 60 | Plant response rating, Wheat (winter) (winter wheat [3]; [23]): 65 | Plant response rating, Wheat (winter) (winter wheat [3]; [21]): 80 | Wild oat plant response rating (0 to 100 scale) (wild oat [4]): 70 | Plant response rating, Wild oat (wild oat [4]; [23]): 65 | Plant response rating, Wild oat (wild oat [4]; [21]): 80 | Barley (winter) plant response rating (0 to 100 scale) (winter barley): 70 | Plant response rating, Barley (winter) (winter barley; [23]): 70 | Plant response rating, Barley (winter) (winter barley; [21]): 80

C=CCCCn1c(=O)on(C(=O)N(c2ccc(F)cc2)C(C)C)c1=O [Compound 291]
Bedstraw plant response rating (bedstraw; [24]): 0 | Bedstraw plant response rating (bedstraw; [25]): 0 | Bedstraw plant response rating (bedstraw; [5]): 0 | Bedstraw plant response rating (bedstraw; [26]): 0 | Bedstraw plant response rating (bedstraw; [27]): 0 | Bedstraw plant response rating (bedstraw; [22]): 0 | Bedstraw plant response rating (bedstraw; [8]): 3 | Bedstraw plant response rating (bedstraw; [9]): 0 | Soybean plant response rating (soybean; [24]): 1 | Soybean plant response rating (soybean; [25]): 0 | Soybean plant response rating (soybean; [5]): 0 | Soybean plant response rating (soybean; [26]): 1 | Soybean plant response rating (soybean; [27]): 0 | Soybean plant response rating (soybean; [22]): 1 | Soybean plant response rating (soybean; [8]): 3 | Soybean plant response rating (soybean; [9]): 0 | Wild oats plant response rating (wild oat [1]; [24]): 0 | Wild oats plant response rating (wild oat [1]; [25]): 0 | Wild oats plant response rating (wild oat [1]; [5]): 0 | Wild oats plant response rating (wild oat [1]; [26]): 0 | Wild oats plant response rating (wild oat [1]; [27]): 0 | Wild oats plant response rating (wild oat [1]; [22]): 0 | Wild oats plant response rating (wild oat [1]; [8]): 0 | Barnyardgrass plant response rating (bamyardgrass; Rate 16 g/ha, head printed Pre-emergence (flood test species), scale 0 to 10, 0 no effect, 10 complete control): 0 | Barnyardgrass plant response rating (bamyardgrass; Rate 31 g/ha, Pre-emergence section (flood test species), scale 0 to 10): 2 | Barnyardgrass plant response rating (bamyardgrass; [12]): 2 | Barnyardgrass plant response rating (bamyardgrass; [13]): 4 | Barnyardgrass plant response rating (bamyardgrass; [14]): 4 | Barnyardgrass plant response rating (bamyardgrass; [15]): 6 | Plant response rating, Wheat (winter) (winter wheat [2]; [16]): 55 | Wheat (winter) plant response rating (winter wheat [2]; [17]): 30 | Plant response rating, Wheat (winter) (winter wheat [2]; [18]): 40 | Blackgrass plant response rating (0 to 100 scale) (blackgrass): 30 | Plant response rating, Blackgrass (blackgrass; [23]): 40 | Plant response rating, Blackgrass (blackgrass; [21]): 50 | Green foxtail plant response rating (0 to 100 scale) (green foxtail): 55 | Plant response rating, Green foxtail (green foxtail; [23]): 85 | Plant response rating, Green foxtail (green foxtail; [21]): 100 | I. Ryegrass plant response rating (0 to 100 scale) (Italian ryegrass): 70 | Plant response rating, I. Ryegrass (Italian ryegrass; [23]): 100 | Plant response rating, I. Ryegrass (Italian ryegrass; [21]): 90 | Wheat (winter) plant response rating (0 to 100 scale) (winter wheat [3]): 35 | Plant response rating, Wheat (winter) (winter wheat [3]; [23]): 50 | Plant response rating, Wheat (winter) (winter wheat [3]; [21]): 60 | Wild oat plant response rating (0 to 100 scale) (wild oat [4]): 20 | Plant response rating, Wild oat (wild oat [4]; [23]): 50 | Plant response rating, Wild oat (wild oat [4]; [21]): 60 | Barley (winter) plant response rating (0 to 100 scale) (winter barley): 10 | Plant response rating, Barley (winter) (winter barley; [23]): 30 | Plant response rating, Barley (winter) (winter barley; [21]): 20
